Results as given in PMC4848905, “Fragment Screening of Human Aquaporin 1” (International Journal of Molecular Sciences, 2016).

T1: hAQP1 (Homo sapiens, UniProt P29972)
T1 construct: made in house; host or cells: Spodoptera frugiperda (Sf9) insect cells, baculovirus vector pFB-LIC-Bse
T1 sequence (P29972 1-269): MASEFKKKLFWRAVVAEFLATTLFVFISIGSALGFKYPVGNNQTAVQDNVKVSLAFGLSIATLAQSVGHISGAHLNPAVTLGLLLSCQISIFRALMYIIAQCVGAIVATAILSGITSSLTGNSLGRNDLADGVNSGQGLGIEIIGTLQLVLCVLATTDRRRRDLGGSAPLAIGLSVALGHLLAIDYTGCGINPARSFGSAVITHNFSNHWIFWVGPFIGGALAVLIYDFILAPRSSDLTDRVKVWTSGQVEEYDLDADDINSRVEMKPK


Legend:
hAQP1 = biological target: T1, hAQP1; set-up: method as in PMID 26028295; conditions: 30 µM; cited from earlier work
human red blood cells = tested on: human red blood cells; set-up: method as in PMID 26028295; conditions: cited from earlier work
[1] = biological target: the molecule itself; assay: SEC; gel filtration on HiLoad 16/600 Superdex 200 prep grade at 4 °C; 20 mM Tris-HCl pH 8, 300 mM NaCl, 1% OG; major peak at 70 mL
[2] = biological target: the molecule itself; assay: native gel or EMSA; blue-native PAGE (4%-16% Bis-Tris gel, 4 °C) of purified protein in sample buffer with 100 mM OG, 750 mM aminocaproic acid, 50 mM Bis-Tris HCl pH 7.0, 0.5 mM EDTA

Molecule | stabilization of hAQP1 (hAQP1) | overall amplitude of the traces (human red blood cells) | rate constant in the RBC assays (human red blood cells) | stoichiometry N [1] | stoichiometry N [2]
O=[N+]([O-])c1ccc2c(c1)/C(=N/N=C1c3ccccc3Cc3ccccc31)c1cc([N+](=O)[O-])cc([N+](=O)[O-])c1-2 [NSC658139] | ≤ 13 °C | strong reduction in overall amplitude | did not reduce the rate constant |  | 
human aquaporin 1 (6His-TEV-hAQP1) (natural protein, UniProt P29972 1-269, looked up, human aquaporin 1, full-length cDNA cloned in pFB-LIC-Bse downstream of an N-terminal 6His and TEV protease cleavage site; No TEV cleavage is described; An octamer band is also assigned in BN-PAGE; also called recombinant hAQP1; source: Sf9 (Spodoptera frugiperda) insect cells, purified (Ni-NTA, gel filtration) in n-octyl-β-D-glucopyranoside) MASEFKKKLFWRAVVAEFLATTLFVFISIGSALGFKYPVGNNQTAVQDNVKVSLAFGLSIATLAQSVGHISGAHLNPAVTLGLLLSCQISIFRALMYIIAQCVGAIVATAILSGITSSLTGNSLGRNDLADGVNSGQGLGIEIIGTLQLVLCVLATTDRRRRDLGGSAPLAIGLSVALGHLLAIDYTGCGINPARSFGSAVITHNFSNHWIFWVGPFIGGALAVLIYDFILAPRSSDLTDRVKVWTSGQVEEYDLDADDINSRVEMKPK |  |  |  | 4 | 8
